# Patent US11484517B2, “Combination comprising a PPAR agonist such as elafibranor and an acetyl-CoA carboxylase (ACC) inhibitor” (GENFIT, priority 2017, dated 2022)
# How the values were obtained:
# TGFβ1-induced hHSC = experiment: α-SMA ELISA in TGFβ1-induced hHSC; type: cell-based, human
# Method: (§1) The human primary hepatic stellate cells (hHSC) (Innoprot) were cultured under standard conditions, as described above.
# The level of α-SMA was measured using a Sandwich ELISA. Briefly, the wells of an ELISA plate were first coated with the capture antibody (mouse monoclonal anti-ACTA2, Abnova) at 4° C. overnight. […] The cell lysates were transferred into the wells for binding to the capture antibody for a period of 2 h at room temperature. After the washing procedure, the detection antibody (biotinylated mouse monoclonal anti-ACTA2, Abnova) was added for 2 hours at room temperature followed by 3 washes. […] Upon oxidation, TMB forms a water-soluble blue reaction product that becomes yellow with addition of sulfuric acid (solution stop), enabling accurate measurement of the intensity at 450 nm using a spectrophotometer. The developed color is directly proportional to the amount of α-SMA present in the lysate.
# as §1
# CDFF-fed mice = experiment: mouse fibrosing-NASH model, CDFF diet (8 weeks); type: in vivo, C57Bl/6J mice
# Method: The preventive effects of the combinations of elafibranor with selonsertib, GKT-831 or GS-0976 were assessed in mice fed a choline-deficient, […] diet (CDAA) supplemented with 2% cholesterol, 30% milk fat diet and high fructose corn syrup 55 (55% fructose/45% glucose for a final concentration of 42 g/L) in drinking water (Mells et al J Nutr Biochem 2015) (CDFF diet). 5-6 weeks old male C57Bl/6J mice were fed a control (CSAA) diet (n=4), CDFF (n=12), or CDFF supplemented with elafibranor (1 or 3 mg/kg/day), selonsertib (30 mg/kg/day), GKT-831 ([…]) alone or in combination (n=8 per group) for 8 weeks.
# The body weight, the food and water intake were monitored twice per week. On the last day of treatment, plasma samples were obtained from retro-orbital blood sampling and mice were sacrificed after a 6 h-fasting period. The liver was rapidly excised for biochemical and histological analyses. […]
# A technician blinded to the source of each liver specimen performed histological examinations. […] Briefly, steatosis, lobular inflammation and hepatocyte ballooning were scored. […]
# (§2) Using Quant Center software (3D Histech, including Pattern Quant and Histo Quant modules), collagen-stained areas were quantified. […] The fibrosis area was then expressed as the percentage of the collagen surface to the whole tissue per animal.
# (§3) The hepatic collagen content was determined using the appropriate QuickZyme kit (Total collagen assay, cat # QZB-totcol2). […]
# (§4) Complete hydrolysis of tissue samples in 6M HCl at 95° C. is required before dosing the hydroxyproline. The assay results in the generation of a chromogen with a maximum absorbance at 570 nm. Results are expressed as mg of collagen/g of liver. […]
# The plasmatic concentration of PIIINP was determined using an ELISA assay from Cloud-Clone Corp (cat # SEA573Mu), according to the manufacturer's instructions. […] The enzyme-substrate reaction is terminated by the addition of sulphuric acid solution and the color change is measured spectrophotometrically at a wavelength of 450 nm±10 nm. […]
# [1] = system: rats fed a CDAA+1% cholesterol diet; experiment: chronic CDAA+1% cholesterol fibrosing NASH-model of rats (12 weeks); type: in vivo, Wistar rats; conditions: liver; Percentage over the untreated CDAA + 1% cholesterol rats; GFT505 3 mg/kg/d, OCA 10 mg/kg/d
# Method: Evaluation of Elafibranor, OCA and the combination Elafibranor+OCA in a chronic CDAA+1% cholesterol model (12 weeks).
# The preventive effects of Elafibranor alone, OCA alone and the combination of both were assessed in a fibrosing NASH-model of rats fed a CDAA+1% cholesterol diet. 150-175 g male Wistar rats were fed a control (CSAA) diet, CDAA+1% cholesterol diet, or CDAA+1% cholesterol diet supplemented with Elafibranor 1, 3 and 10 mg/kg/day, OCA 10 and 30 mg/kg/day or combined drugs (Elafibranor 1, 3 and 10 mg/kg/day combined to OCA 10 mg/kg/day) for 12 weeks.
# The body weight and the food intake were monitored twice per week. On the last day of treatment, rats were sacrificed after a 6 h fasting period. The liver was rapidly excised for biochemical and histological studies.
# A technician blinded to the source of each liver specimen performed histological examinations. Virtual slides were generated using the Pannoramic 250 scanner from 3D Histech. […] Briefly, steatosis, lobular inflammation and hepatocytes ballooning were scored. […]
# as §2, §3, §4
# Quantitative PCR was then carried out using the CFX96 TOUCH Real-Time PCR Detection System (Biorad). […]
# Expression levels were normalized using the expression of RPLP0 gene as a housekeeping gene of reference in samples. […] Expression levels were determined using the standard curve equation for both the housekeeping gene and the target gene (taking into account the specific PCR efficiency of each target gene).
compound,measurement,setting,value
"CCCCOCCOc1ccc(-c2ccc3c(c2)/C=C(/C(=O)Nc2ccc([S@@+]([O-])Cc4cncn4CCC)cc2)CCCN3CC(C)C)cc1 [CVC, Cenicriviroc]","α-SMA inhibition, single agent","TGFβ1-induced hHSC; 5 μM alone, TGFβ1-induced hHSC",does not show any antifibrotic activity
same,"antifibrotic effect (α-SMA), single agent, in words","TGFβ1-induced hHSC; TGFβ1-activated hHSC, all doses",did not show a significant effect at all doses
"CN(C)c1cccc(-c2c3c(=O)n(-c4ccccc4Cl)[nH]c3cc(=O)n2C)c1 [GKT-831, 2-(2-chlorophenyl)-4-[3-(dimethylamino)phenyl]-5-methyl-1H-pyrazolo[4,3-c]pyridine-3,6(2H,5H)-dione]","effect on NASH and fibrosis (inflammatory infiltrates, NAFLD activity score, fibrosis)","CDFF-fed mice; GKT-831 60 mg/kg/day, elafibranor 1 mg/kg/day",no beneficial effect
COc1ccccc1[C@H](Cn1c(=O)n(C(C)(C)C(=O)O)c(=O)c2c(C)c(-c3ncco3)sc21)OC1CCOCC1 [GS-0976],effect on liver fat and body weight,CDFF-fed mice; GS-0976 30 mg/kg/day alone,mild beneficial effect
"CC[C@H]1[C@@H](O)[C@@H]2[C@H](CC[C@]3(C)[C@@H]([C@H](C)CCC(=O)O)CC[C@@H]23)[C@@]2(C)CC[C@@H](O)C[C@@H]12 [OCA, obeticholic acid]",CCR5 mRNA level (marker of inflammation),[1],81% ± 28%
same,TGFβ1 mRNA level,[1],110% ± 23%
same,TIMP1 mRNA level,[1],110% ± 43%
"Cc1cc(F)c(C(=O)Nc2cccc(-c3nncn3C(C)C)n2)cc1-n1cnc(C2CC2)c1 [Selonsertib, selonsertib]","hepatic fibrosis (histology, hepatic collagen content, release of PIIINP and TIMP-1)","CDFF-fed mice; 8 weeks, elafibranor 3 mg/kg/day, selonsertib 30 mg/kg/day",improved hepatic fibrosis
